What all share (experiment): Minimum inhibitory concentration, conventional tube dilution method
Format in all cases: cell-based

One experiment deals with Salmonella. As to conditions: read-out: Minimal Inhibitory Concentration, Salm. The text has this: (§1) The activity of some of the new nitrofuryl quinoline derivatives of the present invention is exemplified in Table 1 against a gram-positive (Staph. aureus), a gram-negative (Salmonella) bacterium and a fungus (Candida albicans). Table 1 indicates the minimum inhibitory concentration of the compound under reference in mg/100 cc required in order to inhibit the growth between 1 and 6 strains of each type. The measurements have been carried out by the conventional tube dilution method at 37 degrees after 24 hours.

The next experiment deals with Candida albicans. Particulars: read-out: Minimal Inhibitory Concentration, Cand. Alb.
Description: as §1

A further experiment has as its system Staph. aureus. As to conditions: Staphylococcus aureus, read-out: Minimal Inhibitory Concentration, Staph. aureus.
Description: as §1

Setting [1] is: gram-negative, tube dilution, 37 degrees, 24 hours, between 1 and 6 strains, mg/100 cc, decimal comma.
Setting [2] is: fungus, tube dilution, 37 degrees, 24 hours, between 1 and 6 strains, mg/100 cc, decimal comma.
Setting [3] is: gram-positive, tube dilution, 37 degrees, 24 hours, between 1 and 6 strains, mg/100 cc, decimal comma.

Values after ≈ are worked out from the molar mass of the structure shown. Where two headings read alike, the source gives them in different places.

For `Cc1cc(-c2ccc([N+](=O)[O-])o2)c2c(C)ccc(N)c2n1` [CH3 H NF CH3 H H NH2], the values for the MIC with Salmonella (setting [1]), in the experiment with Candida albicans (setting [2]) and with Staph. aureus (setting [3]) were above 50 µg/mL, above 50 µg/mL and 5 µg/mL (≈ 17.6 µM), respectively.

Consider `CCc1ccc2nc(C)cc(-c3ccc([N+](=O)[O-])o3)c2c1` [CH3 H NF H C2 H5 H H, 2-methyl-4-[2'-(5'-nitrofuryl)]-6-ethyl quinoline], for which the MIC in the experiment with Salmonella (setting [1]) came to 25 µg/mL (≈ 88.6 µM); in the experiment on Candida albicans (setting [2]) it was 25 µg/mL (≈ 88.6 µM); in the experiment on Staph. aureus (setting [3]) it was 0.1 µg/mL (≈ 0.354 µM).

As to `Cc1cc(C)c2nc(C)cc(-c3ccc([N+](=O)[O-])o3)c2c1` [CH3 H NF H CH3 H CH3, 2,6,8-trimethyl-4-[2'-(5'-nitrofuryl)]quinoline], the MIC was above 50 µg/mL in the experiment on Salmonella (setting [1]), above 50 µg/mL with Candida albicans (setting [2]) and 0.05 to 0.1 µg/mL (≈ 0.177 to 0.354 µM) in the experiment with Staph. aureus (setting [3]).

`Cc1ccc2nc(C)cc(-c3ccc([N+](=O)[O-])o3)c2c1` [CH3 H NF H CH3 H H, 2-methyl-4-[2'-(5'-nitrofuryl)]-6-methyl quinoline]: the MIC was determined as 5 µg/mL (≈ 18.6 µM) in the experiment with Salmonella (setting [1]), 5 µg/mL (≈ 18.6 µM) with Candida albicans (setting [2]) and 0.1 µg/mL (≈ 0.373 µM) with Staph. aureus (setting [3]).

With `Cc1cc(-c2ccc([N+](=O)[O-])o2)c2cc(C(=O)O)c(O)cc2n1` [CH3 H NF H COOH OH H], the MIC in the experiment with Salmonella (setting [1]) was above 50 µg/mL; in the experiment on Candida albicans (setting [2]), above 50 µg/mL; with Staph. aureus (setting [3]), 10 µg/mL (≈ 31.8 µM).

As for `Cc1ccc2c(-c3ccc([N+](=O)[O-])o3)cc(C)nc2c1` [CH3 H NF H H CH3 H, 2,7-dimethyl-4-[2'-(5'-nitrofuryl)]quinoline], the MIC with Salmonella (setting [1]) is 2 to 5 µg/mL (≈ 7.46 to 18.6 µM); in the experiment with Candida albicans (setting [2]) it was 3 µg/mL (≈ 11.2 µM); in the experiment on Staph. aureus (setting [3]) it was 0.05 to 0.1 µg/mL (≈ 0.186 to 0.373 µM).

As for `Cc1cc(-c2ccc([N+](=O)[O-])o2)c2ccc(Cl)cc2n1` [CH3 H NF H H Cl H, 2-methyl-4-[2'-(5'-nitrofuryl)]-7-chloro quinoline], the MIC turned out to be 0.5 µg/mL (≈ 1.73 µM) in the experiment on Salmonella (setting [1]), 25 µg/mL (≈ 86.6 µM) in the experiment on Candida albicans (setting [2]) and 0.1 µg/mL (≈ 0.346 µM) with Staph. aureus (setting [3]).

Consider `Cc1cc(-c2ccc([N+](=O)[O-])o2)c2cccc(C)c2n1` [CH3 H NF H H H CH3, 2,8-dimethyl-4-[2'-(5'-nitrofuryl)]quinoline], for which the MIC in the experiment with Salmonella (setting [1]) is above 50 µg/mL; with Candida albicans (setting [2]), 5 µg/mL (≈ 18.6 µM); in the experiment with Staph. aureus (setting [3]), 0.3 µg/mL (≈ 1.12 µM).

For the molecule `Cc1cc(-c2ccc([N+](=O)[O-])o2)c2ccccc2n1` [CH3 H NF H H H H, 2-methyl-4-[2'-(5'-nitrofuryl)] quinoline], the values for the MIC in the experiment with Salmonella (setting [1]), in the experiment with Candida albicans (setting [2]) and in the experiment with Staph. aureus (setting [3]) were 5 µg/mL (≈ 19.7 µM), 5 µg/mL (≈ 19.7 µM) and 0.1 to 1 µg/mL (≈ 0.393 to 3.93 µM), respectively.

For `Cc1cc(-c2ccc([N+](=O)[O-])o2)c2ccc(NC(=O)C(F)(F)F)c(C)c2n1` [CH3 H NF H H NHCOCF3 CH3], the MIC is above 50 µg/mL in the experiment on Salmonella (setting [1]), above 50 µg/mL in the experiment on Candida albicans (setting [2]) and 0.5 µg/mL (≈ 1.32 µM) in the experiment on Staph. aureus (setting [3]).

For `CC(=O)Nc1ccc2c(-c3ccc([N+](=O)[O-])o3)cc(C)nc2c1C` [CH3 H NF H H NHCOCH3 CH3], the MIC in the experiment on Salmonella (setting [1]) was above 50 µg/mL; with Candida albicans (setting [2]) it was above 50 µg/mL; with Staph. aureus (setting [3]), 1 µg/mL (≈ 3.07 µM).

On to `CCOc1ccc2c(-c3ccc([N+](=O)[O-])o3)cc(C)nc2c1` [CH3 H NF H H OC2 H5 H, 2-methyl-4-[2'-(5'-nitrofuryl)]-7-ethoxy quinoline], for which the MIC in the experiment on Salmonella (setting [1]) was determined as 5 µg/mL (≈ 16.8 µM); in the experiment on Candida albicans (setting [2]), 25 µg/mL (≈ 83.8 µM); in the experiment with Staph. aureus (setting [3]) it was 0.1 µg/mL (≈ 0.335 µM).

Regarding `Cc1cc(-c2ccc([N+](=O)[O-])o2)c2ccc(O)cc2n1` [CH3 H NF H H OH H, 2-methyl-4-[2'-(5'-nitrofuryl)]-7-hydroxy quinoline], the MIC is 5 µg/mL (≈ 18.5 µM) in the experiment on Salmonella (setting [1]), 10 µg/mL (≈ 37 µM) with Candida albicans (setting [2]) and 0.1 µg/mL (≈ 0.37 µM) with Staph. aureus (setting [3]).

Consider `CCCCOc1cc2nc(C)cc(-c3ccc([N+](=O)[O-])o3)c2cc1OCCCC` [CH3 H NF H OC4 H9 OC4 H9 H], for which the MIC in the experiment with Salmonella (setting [1]) is 10 µg/mL (≈ 25.1 µM); in the experiment on Candida albicans (setting [2]) it was above 50 µg/mL; with Staph. aureus (setting [3]), 5 µg/mL (≈ 12.5 µM).

Regarding `COc1cc2nc(C)cc(-c3ccc([N+](=O)[O-])o3)c2cc1OC` [CH3 H NF H OCH3 OCH3 H], the MIC is 25 µg/mL (≈ 79.5 µM) in the experiment on Salmonella (setting [1]), above 50 µg/mL with Candida albicans (setting [2]) and 0.5 to 1 µg/mL (≈ 1.59 to 3.18 µM) in the experiment with Staph. aureus (setting [3]).

Consider `Cc1cc(-c2ccc([N+](=O)[O-])o2)c2cc3ccccc3cc2n1` [CH3 H NF H drawing 6 H, 2-methyl-4-[2'-(5'-nitrofuryl)]-6,7-benzoquinoline], for which the MIC is above 10 µg/mL in the experiment on Salmonella (setting [1]), above 50 µg/mL with Candida albicans (setting [2]) and 5 µg/mL (≈ 16.4 µM) in the experiment on Staph. aureus (setting [3]).

For the molecule `Cc1cc(-c2ccc([N+](=O)[O-])o2)c2c([N+](=O)[O-])ccc(C)c2n1` [CH3 H NF NO2 H H CH3], the MIC was above 50 µg/mL in the experiment on Salmonella (setting [1]), above 50 µg/mL in the experiment on Candida albicans (24 h) and 0.5 to 1 µg/mL (≈ 1.6 to 3.19 µM) with Staph. aureus (24 h).

Turning to `COc1ccc(OC)c2c(-c3ccc([N+](=O)[O-])o3)cc(C)nc12` [CH3 H NF OCH3 H H OCH3, 2-methyl-4-[2'-(5'-nitrofuryl)]-5,8-dimethoxy quinoline], the MIC is above 50 µg/mL with Salmonella (setting [1]), above 50 µg/mL with Candida albicans (setting [2]) and 50 µg/mL (≈ 159 µM) in the experiment on Staph. aureus (setting [3]).

Take `COc1cc(OC)c2c(-c3ccc([N+](=O)[O-])o3)cc(C)nc2c1` [CH3 H NF OCH3 H OCH3 H]: the results for the MIC in the experiment with Salmonella (setting [1]), in the experiment with Candida albicans (setting [2]) and in the experiment on Staph. aureus (setting [3]) were above 50 µg/mL, above 50 µg/mL and 0.5 µg/mL (≈ 1.59 µM), respectively.

Take `CC(=O)OC(OC(C)=O)c1cc(-c2ccc([N+](=O)[O-])o2)c2ccccc2n1` [CH(OAc)2 H NF H H H H]: the MIC was 5 µg/mL (≈ 13.5 µM) in the experiment on Salmonella (setting [1]), 25 to 50 µg/mL (≈ 67.5 to 135 µM) with Candida albicans (setting [2]) and 0.1 µg/mL (≈ 0.27 µM) in the experiment with Staph. aureus (setting [3]).

On to `CCN(CC)C(=O)c1cc(-c2ccc([N+](=O)[O-])o2)c2ccccc2n1` [CON(C2 H5)2 H NF H H H H, 4-[2'-(5'-nitrofuryl)]quinoline-2-carboxylic acid diethylamide], for which the MIC was above 50 µg/mL in the experiment with Salmonella (setting [1]), above 50 µg/mL with Candida albicans (setting [2]) and 0.5 to 1 µg/mL (≈ 1.47 to 2.95 µM) in the experiment on Staph. aureus (setting [3]).

On to `Cc1ccc2c(-c3ccc([N+](=O)[O-])o3)cc(C(=O)O)nc2c1` [COOH H 5NF H H CH3 H, 2-carboxy-4-[2'-(5'-nitrofuryl)]-7-methyl quinoline], for which the values for the MIC in the experiment on Salmonella (setting [1]), with Candida albicans (setting [2]) and in the experiment on Staph. aureus (setting [3]) were 25 µg/mL (≈ 83.8 µM), 50 µg/mL (≈ 168 µM) and 0.5 µg/mL (≈ 1.68 µM), respectively.

For the molecule `COc1ccc2c(-c3ccc([N+](=O)[O-])o3)cc(C(=O)O)nc2c1` [COOH H 5NF H H OCH3 H], the MIC with Salmonella (setting [1]) is 10 µg/mL (≈ 31.8 µM); in the experiment with Candida albicans (setting [2]), 50 µg/mL (≈ 159 µM); in the experiment with Staph. aureus (setting [3]) it was 0.5 µg/mL (≈ 1.59 µM).

Regarding `O=C(O)c1cc(-c2ccc([N+](=O)[O-])o2)c2ccccc2n1` [COOH H NF H H H H, 2-carboxy-4-[2'-(5'-nitrofuryl)]quinoline], the MIC in the experiment on Salmonella (setting [1]) is above 10 µg/mL; with Candida albicans (setting [2]) it was 30 to 50 µg/mL (≈ 106 to 176 µM); with Staph. aureus (setting [3]), 1 µg/mL (≈ 3.52 µM).

On to `CCOc1ccc2c(-c3ccc([N+](=O)[O-])o3)cc(C(=O)O)nc2c1` [COOH H NF H H OC2 H5 H, 2-carboxy-4-[2'-(5'-nitrofuryl)]-7-ethoxy quinoline], for which the values for the MIC in the experiment on Salmonella (setting [1]), in the experiment on Candida albicans (setting [2]) and in the experiment with Staph. aureus (setting [3]) were 5 µg/mL (≈ 15.2 µM), above 50 µg/mL and 0.5 µg/mL (≈ 1.52 µM), respectively.

As to `O=[N+]([O-])c1ccc(-c2ccnc3ccccc23)o1` [H H NF H H H H, 4-[2'-(5'-nitrofuryl)]quinoline], the MIC is 5 µg/mL (≈ 20.8 µM) in the experiment with Salmonella (setting [1]), 1 µg/mL (≈ 4.16 µM) in the experiment on Candida albicans (setting [2]) and 0.1 to 0.5 µg/mL (≈ 0.416 to 2.08 µM) with Staph. aureus (setting [3]).

For the molecule `Cc1cc(-c2ccc([N+](=O)[O-])o2)nc2ccccc12` [NF H CH3 H H H H, 2-[2'-(5'-nitrofuryl)]-4-methyl quinoline], the values for the MIC with Salmonella (setting [1]), with Candida albicans (setting [2]) and in the experiment with Staph. aureus (setting [3]) were 5 µg/mL (≈ 19.7 µM), 0.5 µg/mL (≈ 1.97 µM) and 0.2 to 0.5 µg/mL (≈ 0.787 to 1.97 µM), respectively.

For `O=[N+]([O-])c1ccc(-c2ccc3ccccc3n2)o1` [NF H H H H H H, 2-[2'-(5'-nitrofuryl)]quinoline], the MIC in the experiment on Salmonella (24 h) is 25 µg/mL (≈ 104 µM); with Candida albicans (setting [2]), 2 to 5 µg/mL (≈ 8.33 to 20.8 µM); in the experiment with Staph. aureus (setting [3]), 0.5 µg/mL (≈ 2.08 µM).

(Values after patent US4224448A, “2'-(5'-Nitrofuryl) substituted quinolines” (priority 1966, dated 1980).)
